Assay results taken from patent publication US8586552B2, “4,6-substituted 2,5-dideoxystreptamine aminoglycoside antibiotics” (SelectX Pharmaceuticals, Inc., priority 2012, dated 2013).
In brackets after ≈: the same amount, converted by molar mass.

Tests used:
[1] = tested on: more than fifty resistant contemporary clinical isolates of Pseudomonas aeruginosa; assay: MIC90 against panel of resistant clinical isolates of Pseudomonas aeruginosa; type: cell-based
Text: To assess this, a panel of more than fifty resistant contemporary clinical isolates of Pseudomonas aeruginosa were obtained from multiple sources including JMI Laboratories (North Liberty, Iowa), Pfizer (Groton, Conn.), Micromyx (Kalamazoo, Mich.), Dr. J. Chow (Wayne State University). Strains were characterized for resistance to a wide variety of classes of antibiotics including aminoglycosides, β-lactams and fluoroquinolones. […] This reflects the difficulty in treating clinical Pseudomonas aeruginosa infections. […] Using this stringent panel, we tested a subset of compounds of the invention (Table 4).

[2] = tested on: Acinetobacter baumannii AB1; assay: MIC against Acinetobacter baumannii clinical isolate AB1; type: cell-based
Text: (§1) Acinetobacter baumannii is another clinically important and very challenging gram negative pathogen. Members of the Acinetobacter genus, including baumannii, have a remarkable ability to upregulate and acquire resistance determinants. Coupled with its ability to survive for prolonged periods in a hospital environment, A. baumannii is an emerging threat for healthcare institutions globally. We acquired clinical isolates of Acinetobacter baumannii and used this panel to test compounds for anti-Acinetobacter activity. We first tested reference AGs against our panel of Aba strains.

[3] = tested on: Pseudomonas aeruginosa PR1 (clinical isolate with intermediate aminoglycoside resistance); assay: MIC against Pseudomonas aeruginosa clinical isolate PR1; type: cell-based; details: Pseudomonas aeruginosa resistant strain PR1
[4] = tested on: Acinetobacter baumannii (Aba, ABWT, ATCC #BAA-747); assay: MIC against Acinetobacter baumannii reference strain ABWT; type: cell-based
[5] = tested on: fifty resistant contemporary clinical isolates of Klebsiella pneumoniae; assay: MIC90 against panel of resistant clinical isolates of Klebsiella pneumoniae; type: cell-based; details: stringent panel of resistant clinical isolates, Table 5
Text: Using this stringent Klebsiella pneumoniae panel, we tested a subset of compounds of the invention.

[6] = tested on: Pseudomonas aeruginosa PR3 (high-level, efflux-mediated, pan-aminoglycoside resistance); assay: MIC against Pseudomonas aeruginosa clinical isolate PR3; type: cell-based; details: Pseudomonas aeruginosa resistant strain PR3
[7] = tested on: Acinetobacter baumannii AB3; assay: MIC against Acinetobacter baumannii clinical isolate AB3; type: cell-based
Text: as §1

[8] = tested on: Klebsiella pneumoniae KR2 (clinical isolate with intermediate aminoglycoside resistance); assay: MIC against Klebsiella pneumoniae clinical isolate KR2; type: cell-based; details: Klebsiella pneumonia KR2
Text: (§2) Klebsiella pneumoniae (Kpn) and Escherichia coli (Eco) are gram-negative (like Pae), enteric pathogens with increasing clinical relevance. Many clinical isolates of Kpn and Eco harbor extended-spectrum beta-lactamases and are no longer sensitive to most beta-lactam antibiotics. We acquired clinical isolates of Klebsiella pneumoniae and Escherichia coli (Micromyx LLC, Kalamazoo, Mich.) and used this panel to test compounds for anti-enteric activity.

[9] = tested on: resistant strain of P. aeruginosa (P. aeruginosa 6294 MLP-3); assay: Rat neutropenic thigh model against resistant P. aeruginosa; type: in vivo
Description: The compound identified as SXP 2523 was further tested in vivo against a resistant strain of P. aeruginosa. Twenty male Sprague Dawley rats were rendered neutropenic by treatment with cyclophosphamide on day −4 and day −1 with 100 mg/kg and 75 mg/kg, respectively. Rats were infected with P. aeruginosa 6294 MLP-3, via injection into the right thigh muscle of 0.1 mL per rat. Two hours post infection rats were treated intravenously with either SXP-2523 or amikacin in a total dose of 10 or 60 mg/kg, respectively. The test article and control agent were delivered at 2, 4, and 6 hours post infection. Five rats were treated with each drug concentration. One group of five rats were euthanized at initiation of treatment and thigh CFUs were determined (T=Rx). Twenty-four hours post infection; rats were euthanized by CO2 inhalation. The right thigh muscles of the rats were aseptically removed, weighed, homogenized, serially diluted, and plated on BHI medium. The plates were incubated overnight at 37° C. in 5% CO2. CFU per gram of thigh was calculated by enumerating the plated colonies then adjusting for serial dilutions and the weight of the thigh.

[10] = tested on: panel of E. coli strains; assay: MIC90 against a panel of E. coli strains; type: cell-based; details: in µg/mL
[11] = tested on: Klebsiella pneumoniae KR3 (clinical isolate possessing high-level aminoglycoside resistance); assay: MIC against Klebsiella pneumoniae clinical isolate KR3; type: cell-based; details: Klebsiella pneumonia KR3; in µg/mL
Text: as §2

[12] = tested on: Klebsiella pneumoniae KR1 (clinical isolate with intermediate aminoglycoside resistance); assay: MIC against Klebsiella pneumoniae clinical isolate KR1; type: cell-based; details: Klebsiella pneumonia KR1; in µg/mL
Text: as §2

[13] = tested on: Klebsiella pneumoniae (Kpn, KPWT, ATCC #700603); assay: MIC against Klebsiella pneumoniae reference strain KPWT; type: cell-based; details: Klebsiella pneumonia KPWT, Table 5 (unit not given); in µg/mL
[14] = tested on: Pseudomonas aeruginosa (Pae, PAWT, ATCC #27853); assay: MIC against Pseudomonas aeruginosa reference strain PAWT; type: cell-based; details: Pseudomonas aeruginosa wild type PAWT
[15] = resistant P. aeruginosa, Log CFU/thigh, total dose 10 mg/kg SXP-2523 or 60 mg/kg amikacin iv

NCCCNCC1OC(OC2C(NC(=O)C(O)CCN)CC(N)C(OC3OC(CN)C(O)CC3N)C2F)C(O)C(N)C1O (centres unmarked) [SXP 2523]
MIC90 Pseudomonas aeruginosa [1]: 4 µg/mL (≈ 6.38 µM) | MIC AB1 [2]: 2 to 4 µg/mL | MIC PR1 [3]: 1 to 2 µg/mL | MIC ABWT [4]: 0.5 µg/mL (≈ 0.798 µM) | MIC90 Klebsiella pneumonia [5]: 1 µg/mL (≈ 1.6 µM) | MIC PR3 [6]: 4 µg/mL (≈ 6.38 µM) | MIC AB3 [7]: 4 to 8 µg/mL | MIC KR2 [8]: 0.5-1 | efficacy against amikacin-resistant P. aeruginosa in animal model ([9]; rat neutropenic thigh model, total dose 10 mg/kg iv): effective against amikacin-resistant P. aeruginosa | Change from 24 hr. control [9, 15]: −4.94 | Change from T = Rx controls [9, 15]: −1.78 | Log CFU/thigh ([9]; resistant P. aeruginosa, neutropenic male Sprague Dawley rats, iv at 2, 4, 6 h post infection, total dose 10 mg/kg SXP-2523 or 60 mg/kg amikacin, 24 h post infection): 1.71 Log CFU/thigh | MIC90 E. coli [10]: 2 | MIC KR3 [11]: 1 | MIC KR1 [12]: 0.5-1 | MIC KPWT [13]: 0.5-1 | MIC PAWT [14]: 0.25 µg/mL (≈ 0.399 µM)
